For 28 compounds, IC50 results are on record in patent publication EP4585599A1, “NITROGEN-CONTAINING FUSED RING COMPOUND, INTERMEDIATE THEREOF, PREPARATION METHOD THEREFOR AND USE THEREOF” (Hangzhou Synrx Therapeutics Biomedical Technology Co., Ltd., priority 2022, dated 2024).

In general, IC50 refers to the concentration that gives 50% inhibition.

Where two headings read alike, the source gives them in different places.

The target of assay [1] is T1, helicase domain of the Pol θ protein (Homo sapiens, UniProt O75417).
T1 construct: The helicase domain of the Pol θ protein was purified from insect protein expression system; made in house; host or cells: insect protein expression system
In words: Biochemical Activity Assay (ADP Glo Assay) of Pol θ inhibitor, ATPase activity. The following applies: ssDNA substrate, read-out: Biochemical assay IC50. For orientation: In ADP-Glo the light output rises with the ADP produced.

The nature of assay [2]: cells. Particulars: Homo sapiens, DLD-1, 240 h.
Where [3] appears, read: ADP-Glo assay, ATPase activity of Pol θ helicase domain.
Setting [4] is: ADP-Glo, 60 min at room temperature.
The mark [5] stands for this setting: read-out: Cell viability assay IC50 (nM), CTG assay, CellTiter Glo, read on Day 10, cell line not given.
[6] abbreviates: read-out: Cell viability assay IC50 (nM), CTG on Day 10, cell line not given (method: DLD1 and DLD1^-/- cells).

T1 sequence (O75417 102-554 limits assumed): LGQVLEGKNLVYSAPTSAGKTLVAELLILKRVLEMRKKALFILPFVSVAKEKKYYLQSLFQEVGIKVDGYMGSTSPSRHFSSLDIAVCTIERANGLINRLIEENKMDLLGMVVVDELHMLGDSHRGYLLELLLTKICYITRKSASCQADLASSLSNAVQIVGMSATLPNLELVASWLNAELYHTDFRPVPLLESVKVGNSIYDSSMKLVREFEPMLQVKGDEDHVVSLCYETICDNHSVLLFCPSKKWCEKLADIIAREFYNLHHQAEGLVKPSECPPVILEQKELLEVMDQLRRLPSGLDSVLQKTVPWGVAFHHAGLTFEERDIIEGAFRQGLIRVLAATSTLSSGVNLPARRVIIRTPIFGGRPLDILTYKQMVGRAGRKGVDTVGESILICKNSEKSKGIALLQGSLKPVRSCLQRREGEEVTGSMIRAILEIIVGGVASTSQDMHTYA

As to `Cc1cc(-c2c(F)cccc2OC(F)F)c(C(=O)Nc2nc3ccc(C4=CCC(O)CC4)nc3s2)cn1` (stereo not drawn) [Example 7], the IC50 in assay [1] (setting [3]) was 26.4 nM; in assay [1] (setting [4]), < 50 nM; in assay [2] (setting [5]), 73.6 nM; in assay [2] (setting [6]), < 100 nM.
With `COc1cnc(Cl)c(F)c1-c1cc(C)ncc1C(=O)Nc1nc2ncc(C3=CCC(O)CC3)cc2s1` (stereo not drawn) [Example 8], the IC50 in assay [1] (setting [3]) was 1.09 nM; in assay [1] (setting [4]), < 50 nM; in assay [2] (setting [5]), 24.2 nM; in assay [2] (setting [6]) it was < 100 nM.
For the compound `COc1cnc(Cl)cc1-c1cc(C)ncc1C(=O)Nc1nc2ccc(C3=CCN(C)CC3)nc2s1` [Example 10], the IC50 in assay [1] (setting [3]) is 33.1 nM; in assay [1] (setting [4]), < 50 nM; in assay [2] (setting [5]), 446 nM; in assay [2] (setting [6]) it was 100 to 500 nM.
In the case of `COc1cnc(Cl)cc1-c1cc(C)ncc1C(=O)Nc1nc2ncc(C3=CCC(O)CC3)nc2s1` (stereo not drawn) [Example 12], the IC50 is 2.41 nM in assay [1] (setting [3]), < 50 nM in assay [1] (setting [4]), 15.3 nM in assay [2] (setting [5]) and < 100 nM in assay [2] (setting [6]).
As to `COc1cnc(Cl)cc1-c1cc(C)ncc1C(=O)Nc1nc2c(F)cc(C3=CCC(O)CC3)cc2s1` (stereo not drawn) [Example 13], the IC50 is 2.89 nM in assay [1] (setting [3]), < 50 nM in assay [1] (setting [4]), 5.84 nM in assay [2] (setting [5]) and < 100 nM in assay [2] (setting [6]).
Take `COc1cnc(Cl)cc1-c1cc(C)ncc1C(=O)Nc1nc2ncc(C3=CCOCC3)cc2s1` [Example 14]: the IC50 was 2.74 nM in assay [1] (setting [3]), < 50 nM in assay [1] (setting [4]), 31.6 nM in assay [2] (setting [5]) and < 100 nM in assay [2] (setting [6]).
The matching figures for `COc1cnc(Cl)cc1-c1cc(C)ncc1C(=O)Nc1nc2ccc(C3=CCC(O)CC3)cc2s1` (stereo not drawn) [Example 15]: 3.55 nM, < 50 nM, 14.7 nM and < 100 nM.
In the case of `COc1cnc(Cl)cc1-c1cc(C)ncc1C(=O)Nc1nc2ncc(C3=CCNCC3)cc2s1` [Example 16], the IC50 in assay [1] (setting [3]) is 13.5 nM; in assay [1] (setting [4]), < 50 nM; in assay [2] (setting [5]) it was 2330 nM; in assay [2] (setting [6]) it was > 1000 nM.
In the case of `COc1cnc(Cl)c(F)c1-c1cc(C)ncc1C(=O)Nc1nc2ncc(-c3ccn(C)n3)cc2s1` [Example 17], the IC50 in assay [1] (setting [3]) was 8.57 nM; in assay [1] (setting [4]), < 50 nM; in assay [2] (setting [5]), 103 nM; in assay [2] (setting [6]) it was 100 to 500 nM.
Turning to `COc1cnc(Cl)cc1-c1cc(C)ncc1C(=O)Nc1nc2ncc(-c3cnc4[nH]ccc4c3)cc2s1` [Example 19], the IC50 in assay [1] (setting [3]) was 72.1 nM; in assay [1] (setting [4]), 50 to 200 nM; in assay [2] (setting [5]), 261 nM; in assay [2] (setting [6]), 100 to 500 nM.
In the same order, the values of `COc1cnc(Cl)cc1-c1cc(C)ncc1C(=O)Nc1nc2ccc(C3=CCC(O)CC3)c(F)c2s1` (stereo not drawn) [Example 20] are 2.95 nM, < 50 nM, 7.64 nM and < 100 nM.
In the same order, the values of `COc1cnc(Cl)cc1-c1cc(C)ncc1C(=O)Nc1nc2ncc(C3=CCC(N)CC3)cc2s1` (stereo not drawn) [Example 21] are 3.48 nM, < 50 nM, 76.4 nM and < 100 nM.
In the same order, the values of `COc1cnc(Cl)cc1-c1cc(C)ncc1C(=O)Nc1nc2ccc(C3=CCC(O)CC3)c(C#N)c2s1` (stereo not drawn) [Example 22] are 115 nM, 50 to 200 nM, 1580 nM and > 1000 nM.
As for `COc1cnc(Cl)cc1-c1cc(C)ncc1C(=O)Nc1nc2ncc(C3=CCC(NC(C)=O)CC3)cc2s1` (stereo not drawn) [Example 23], the IC50 is 2.84 nM in assay [1] (setting [3]), < 50 nM in assay [1] (setting [4]), 15.3 nM in assay [2] (setting [5]) and < 100 nM in assay [2] (setting [6]).
In the same order, the values of `COc1cnc(Cl)cc1-c1cc(C)ncc1C(=O)Nc1nc2ccc(-c3ccn(C)n3)nc2s1` [Example 24] are 15.2 nM, < 50 nM, 192 nM and 100 to 500 nM.
In the same order, the values of `COc1cnc(Cl)cc1-c1cc(C)ncc1C(=O)Nc1nc2ncc(-n3ccccc3=O)cc2s1` [Example 25] are 3.94 nM, < 50 nM, 138 nM and 100 to 500 nM.
In the case of `COc1cnc(Cl)cc1-c1cc(C)ncc1C(=O)Nc1nc2ccc([C@H]3CC[C@H](O)CC3)nc2s1` [Example 29], the IC50 in assay [1] (setting [3]) is 12.9 nM; in assay [1] (setting [4]) it was < 50 nM; in assay [2] (setting [5]), 131 nM; in assay [2] (setting [6]), 100 to 500 nM.
In the same order, the values of `COc1cnc(Cl)c(F)c1-c1cc(C)ncc1C(=O)Nc1nc2ccc(C3CCC(O)CC3)cc2s1` (stereo not drawn) [Example 30] are 1.62 nM, < 50 nM, 19.2 nM and < 100 nM.
Regarding `COc1cccc(F)c1-c1cc(C)ncc1C(=O)Nc1nc2ccc([C@H]3CC[C@@H](O)CC3)nc2s1` [Example 31], the IC50 in assay [1] (setting [3]) is 66.4 nM; in assay [1] (setting [4]), 50 to 200 nM; in assay [2] (read-out: Cell viability assay IC50 (nM)), > 1000 nM.
For `COc1cccc(F)c1-c1cc(C)ncc1C(=O)Nc1nc2ccc([C@H]3CC[C@H](O)CC3)nc2s1` [Example 32], the IC50 in assay [1] (setting [3]) is 196 nM; in assay [1] (setting [4]), 50 to 200 nM; in assay [2] (setting [5]) it was 7080 nM; in assay [2] (setting [6]), > 1000 nM.
In the case of `COc1cnc(Cl)cc1-c1cnccc1C(=O)Nc1nc2ccc([C@H]3CC[C@H](O)CC3)nc2s1` [Example 34], the IC50 in assay [1] (setting [3]) was 48.9 nM; in assay [1] (setting [4]), < 50 nM; in assay [2] (setting [5]), 2000 nM; in assay [2] (setting [6]), > 1000 nM.
With `COc1cnc(Cl)cc1-c1cc(C)ncc1C(=O)Nc1nc2cc(C3CCC(O)CC3)cnc2s1` (stereo not drawn) [Example 35], the IC50 in assay [1] (setting [3]) was 251 nM; in assay [1] (setting [4]), 200 to 500 nM; in assay [2] (setting [5]), 3290 nM; in assay [2] (setting [6]), > 1000 nM.
The matching figures for `COc1cnc(Cl)cc1-c1cc(C)ncc1C(=O)Nc1nc2ccc(C3CCN(C)CC3)nc2s1` [Example 36]: 236 nM, 200 to 500 nM, 584 nM and 500 to 1000 nM.
On to `COc1cnc(Cl)cc1-c1cc(C)ncc1C(=O)Nc1nc2ncc(C3CCOCC3)cc2s1` [Example 37], for which the IC50 is 4.36 nM in assay [1] (setting [3]), < 50 nM in assay [1] (setting [4]), 44.7 nM in assay [2] (setting [5]) and < 100 nM in assay [2] (setting [6]).
Regarding `COc1cnc(Cl)cc1-c1cc(C)ncc1C(=O)Nc1nc2ccc(N3CCC(O)C3)nc2s1` (stereo not drawn) [Example 47], the IC50 in assay [1] (setting [3]) is 53 nM; in assay [1] (setting [4]), 50 to 200 nM; in assay [2] (setting [5]), 631 nM; in assay [2] (setting [6]), 500 to 1000 nM.
On to `COc1cnc(Cl)cc1-c1cc(C)ncc1C(=O)Nc1nc2ccc(N3CCC(C)(O)CC3)cc2s1` [Example 48], for which the IC50 was 26.4 nM in assay [1] (setting [3]), < 50 nM in assay [1] (setting [4]), 165 nM in assay [2] (setting [5]) and 100 to 500 nM in assay [2] (setting [6]).
Consider `COc1cnc(Cl)c(F)c1-c1cc(C)ncc1C(=O)Nc1nc2ncc(N3CCOCC3)cc2s1` [Example 49], for which the IC50 in assay [1] (setting [3]) is 7.58 nM; in assay [1] (setting [4]) it was < 50 nM; in assay [2] (setting [5]), 54.1 nM; in assay [2] (setting [6]) it was < 100 nM.
As to `COc1cnc(Cl)cc1-c1cc(C)ncc1C(=O)Nc1nc2ncc(N3CCS(=O)(=O)CC3)cc2s1` [Example 50], the IC50 in assay [1] (setting [3]) was 8.39 nM; in assay [1] (setting [4]) it was < 50 nM; in assay [2] (setting [5]) it was 541 nM; in assay [2] (setting [6]), 500 to 1000 nM.
